Measured values taken from ChEMBL document CHEMBL3232928, “Fragment-to-hit-to-lead discovery of a novel pyridylurea scaffold of ATP competitive dual targeting type II topoisomerase inhibiting antibacterial agents” (J Med Chem, 2013).
pIC50: −log10 of the molar value. Values after ≈ are worked out from the molar mass of the structure shown.

Legend:
DNA gyrase subunit B = DNA gyrase subunit B (Staphylococcus aureus, UniProt P0A0K8); test: Inhibition of ATPase activity in Staphylococcus aureus GyrB tetramer in presence of Escherichia coli GyrA by ammonium molybdate/malachite green-based absorbance assay
Escherichia coli [1] = test: Antibacterial activity against wild type Escherichia coli W3110 assessed as growth inhibition after 18 to 24 hrs by CLSI broth microdilution method; type: functional
Staphylococcus aureus [2] = test: Antibacterial activity against methicillin-resistant and […] Staphylococcus aureus assessed as growth inhibition after 18 to 24 hrs by CLSI broth microdilution method; type: functional
[3] = Inhibition of ATPase activity in Escherichia coli ParC/ParE by ammonium molybdate/malachite green-based absorbance assay
[4] = Inhibition of ATPase activity in Escherichia coli GyrA/GyrB by ammonium molybdate/malachite green-based absorbance assay
[5] = Antibacterial activity against wild type Haemophilus influenzae Rd KW20 ATCC 51907 assessed as growth inhibition after 18 to 24 hrs by CLSI broth microdilution method; type: functional
[6] = Inhibition of ATPase activity in Escherichia coli ParE by ammonium molybdate/malachite green-based absorbance assay
Staphylococcus aureus [7] = test: Antibacterial activity against methicillin-sensitive wild type Staphylococcus aureus assessed as growth inhibition after 18 to 24 hrs by CLSI broth microdilution method; type: functional
Escherichia coli [8] = test: Antibacterial activity against tolC efflux pump deficient Escherichia coli W3110 assessed as growth inhibition after 18 to 24 hrs by CLSI broth microdilution method; type: functional
Moraxella catarrhalis = test: Antibacterial activity against wild type Moraxella catarrhalis ATCC 43617 assessed as growth inhibition after 18 to 24 hrs by CLSI broth microdilution method; type: functional
[9] = Antibacterial activity against Streptococcus pneumoniae D39 NCTC 7466 assessed as growth inhibition after 18 to 24 hrs by CLSI broth microdilution method; type: functional
[10] = Octanol-phosphate buffer partition coefficient, log D of the compound at pH 7.4 after 1 hr by shake flask method; type: physicochemical
[11] = Unbound fraction in human at 10 uM after 16 hrs by LC-MS/MS analysis; type: ADME; conditions: plasma
[12] = Clearance in rat plasma at 10 mg/kg, iv administered 15 mins of infusion measured for 0 to 24 hrs by LC-MS/MS analysis; type: ADME, organism-based; design: dose 10 mg/kg, route intravenous
[13] = Volume of distribution at steady state in rat plasma at 10 mg/kg, iv administered 15 mins of infusion measured for 0 to 24 hrs by LC-MS/MS analysis; type: ADME, organism-based; design: dose 10 mg/kg, route intravenous; conditions: read-out: Vdss
[14] = Solubility of the compound; type: physicochemical

Sequence of DNA gyrase subunit B (P0A0K8 whole entry): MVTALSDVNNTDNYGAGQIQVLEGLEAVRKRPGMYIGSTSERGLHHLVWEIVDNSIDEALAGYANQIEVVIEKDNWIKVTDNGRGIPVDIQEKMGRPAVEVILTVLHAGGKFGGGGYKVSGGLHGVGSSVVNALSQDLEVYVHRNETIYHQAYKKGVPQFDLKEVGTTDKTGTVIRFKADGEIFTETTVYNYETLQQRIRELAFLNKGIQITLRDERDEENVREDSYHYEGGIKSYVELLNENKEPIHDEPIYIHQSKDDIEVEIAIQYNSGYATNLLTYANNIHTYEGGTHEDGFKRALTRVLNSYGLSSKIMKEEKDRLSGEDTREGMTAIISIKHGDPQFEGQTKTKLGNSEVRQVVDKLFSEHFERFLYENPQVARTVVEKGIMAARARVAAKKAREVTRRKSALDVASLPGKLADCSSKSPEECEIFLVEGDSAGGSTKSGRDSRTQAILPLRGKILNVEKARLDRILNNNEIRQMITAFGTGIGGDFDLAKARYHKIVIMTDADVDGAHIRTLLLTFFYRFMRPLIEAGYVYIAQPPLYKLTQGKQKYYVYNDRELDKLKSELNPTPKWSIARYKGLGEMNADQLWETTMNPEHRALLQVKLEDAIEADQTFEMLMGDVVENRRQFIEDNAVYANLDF

SMILES | pIC50 (DNA gyrase subunit B) | MIC (Escherichia coli [1]) [µg/mL] | MIC (Staphylococcus aureus [2]) [µg/mL] | pIC50 [3] | pIC50 [4] | MIC [5] [µg/mL] | pIC50 [6] | MIC (Staphylococcus aureus [7]) [µg/mL] | MIC (Escherichia coli [8]) [µg/mL] | MIC (Moraxella catarrhalis) [µg/mL] | MIC [9] [µg/mL] | logD at 1 h [10] | fraction unbound at 16 h, 10 µM [11] | clearance [12] [mL/min/kg] | Vd [13] [L/kg] | solubility [14] [µM]
CCNC(=O)Nc1ccccn1 | 4.49 | – | – | – | – | – | – | – | – | – | – | – | – | – | – | –
CCNC(=O)Nc1ccc(-c2cccnc2)cn1 | 5.57 | > 48 | > 64 | 4.10 | 5.70 | > 48 | 5.85 | > 48 | > 48 | > 48 | – | – | – | – | – | –
CCNC(=O)Nc1cc(-c2nc(C(F)(F)F)cs2)c(-c2nc3cccc(C(=O)O)c3s2)cn1 | > 8.00 | > 64 | 6.1 (≈ 12.4 µM) | 6.44 | > 8.00 | 12 (≈ 24.3 µM) | > 8.00 | 3.1 (≈ 6.28 µM) | 0.8 (≈ 1.62 µM) | 1.6 (≈ 3.24 µM) | 0.05 (≈ 0.101 µM) | 0.73 | – | – | – | –
O=C(NCC(F)(F)F)Nc1ccccn1 | < 3.00 | – | – | – | – | – | – | – | – | – | – | – | – | – | – | –
C#CCNC(=O)Nc1ccccn1 | 3.46 | – | – | – | – | – | – | – | – | – | – | – | – | – | – | –
CCNC(=O)Nc1cc(-c2noc(C)n2)c(-c2cncc(C(=O)O)c2)cn1 | – | > 64 | – | – | – | > 64 | 6.82 | > 64 | > 64 | – | > 64 | -2.1 | – | – | – | –
CCNC(=O)Nc1cc(-c2nc(C(F)(F)F)cs2)c(-c2cncc(C#N)c2)cn1 | > 8.00 | > 64 | 0.23 (≈ 0.55 µM) | 5.96 | > 8.00 | 21 (≈ 50.2 µM) | > 8.00 | 0.33 (≈ 0.789 µM) | 0.33 (≈ 0.789 µM) | 0.33 (≈ 0.789 µM) | < 0.084 | 2.8 | 0.059 | 110 | 3.4 | 7 (≈ 2.93 µg/mL)
CCNC(=O)Nc1cc(-c2nc(C(F)(F)F)cs2)c(-c2ncc(C(=O)O)s2)cn1 | > 8.00 | > 64 | 44 (≈ 99.2 µM) | 6.03 | > 8.00 | > 64 | > 8.00 | > 64 | 22 (≈ 49.6 µM) | 44 (≈ 99.2 µM) | 2.8 (≈ 6.31 µM) | – | – | – | – | –
CCNC(=O)Nc1ccc(-c2nc3cccc(C(N)=O)c3s2)cn1 | 7.41 | > 64 | – | 4.92 | 7.03 | > 64 | 7.15 | > 64 | > 64 | > 64 | 1 (≈ 2.93 µM) | – | – | – | – | < 1
CCNC(=O)Nc1ccc(-c2nc3cccc(C(=O)O)c3s2)cn1 | 7.00 | > 64 | – | 5.68 | – | 16 (≈ 46.7 µM) | – | > 64 | 8 (≈ 23.4 µM) | 8 (≈ 23.4 µM) | 2 (≈ 5.84 µM) | – | – | – | – | –
CCNC(=O)Nc1nc2ccccc2[nH]1 | 4.19 | – | – | – | – | – | – | – | – | – | – | – | – | – | – | –
CCNC(=O)Nc1ccc(-c2nc(C(=O)O)cs2)cn1 | 5.44 | > 64 | – | – | – | > 64 | – | > 64 | – | > 64 | > 64 | – | – | – | – | –
CCNC(=O)Nc1ccc(-c2cccc(C(=O)O)c2)cn1 | 5.47 | > 64 | – | 4.16 | 5.33 | 59 (≈ 207 µM) | 5.70 | > 64 | > 64 | 42 (≈ 147 µM) | 21 (≈ 73.6 µM) | – | – | – | – | –
CCOC(=O)Nc1ccccn1 | < 3.00 | – | – | – | – | – | – | – | – | – | – | – | – | – | – | –
CCNC(=O)Nc1cc(-c2nc(C(F)(F)F)cs2)c(-c2cncc(-c3c(C)noc3C)c2)cn1 | 6.52 | > 9 | – | 5.32 | 7.17 | > 9 | 7.28 | > 9 | > 9 | – | 4.6 (≈ 9.42 µM) | 3.5 | 0.045 | – | – | 6 (≈ 2.93 µg/mL)
CCNC(=O)Nc1cc(-c2cccnc2)c(-c2cncc(C(=O)O)c2)cn1 | 6.57 | > 64 | – | 5.00 | 6.52 | > 64 | 6.51 | > 64 | > 64 | > 64 | > 64 | -1.5 | – | – | – | –
CCNC(=O)Nc1ncccn1 | 4.10 | – | – | – | – | – | – | – | – | – | – | – | – | – | – | –
CCNC(=O)Nc1cc(-c2nc(C(F)(F)F)cs2)c(-c2cncc(/C(N)=N/O)c2)cn1 | 7.14 | > 64 | 0.72 (≈ 1.59 µM) | 5.70 | 7.49 | 1.4 (≈ 3.1 µM) | 7.68 | 0.36 (≈ 0.797 µM) | 0.18 (≈ 0.399 µM) | 0.18 (≈ 0.399 µM) | < 0.01 | 2.2 | 0.35 | 22 | – | 4 (≈ 1.81 µg/mL)

SMILES | pIC50 (DNA gyrase subunit B) | MIC (Escherichia coli [1]) [µg/mL] | MIC (Staphylococcus aureus [2]) [µg/mL] | pIC50 [3] | pIC50 [4] | MIC [5] [µg/mL] | pIC50 [6] | MIC (Staphylococcus aureus [7]) [µg/mL] | MIC (Escherichia coli [8]) [µg/mL] | MIC (Moraxella catarrhalis) [µg/mL] | MIC [9] [µg/mL] | logD at 1 h [10] | fraction unbound at 16 h, 10 µM [11] | clearance [12] [mL/min/kg] | Vd [13] [L/kg] | solubility [14] [µM]
CCNC(=O)Nc1ccc(-c2ncc(C(N)=O)s2)cn1 | 6.26 | > 64 | > 64 | 4.57 | 6.25 | 32 (≈ 110 µM) | 6.42 | 64 (≈ 220 µM) | 16 (≈ 54.9 µM) | 8 (≈ 27.5 µM) | 4 (≈ 13.7 µM) | – | – | – | – | –
CCNC(=O)Nc1ccc(-c2ccc(C(=O)O)cc2)cn1 | 6.06 | > 64 | – | 4.55 | 5.80 | 16 (≈ 56.1 µM) | 7.27 | > 64 | 16 (≈ 56.1 µM) | 4 (≈ 14 µM) | – | – | – | – | – | –
CCNC(=O)Nc1ccc(-c2ncc(C(=O)O)s2)cn1 | 6.57 | > 64 | – | 5.06 | 6.62 | > 64 | 6.96 | > 64 | – | > 64 | 64 (≈ 219 µM) | – | – | – | – | –
CCN(CC)C(=O)Nc1ccccn1 | 4.42 | – | – | – | – | – | – | – | – | – | – | – | – | – | – | –
CCNC(=O)Nc1cc(-c2ccccc2)c(-c2cncc(C(=O)O)c2)cn1 | 7.22 | > 64 | – | 5.70 | 7.02 | > 64 | 6.77 | > 64 | 36 (≈ 99.3 µM) | > 64 | 4.5 (≈ 12.4 µM) | -0.31 | – | – | – | –
CCNC(=O)Nc1cc(-c2nc(C(C)(C)C)cs2)c(-c2cncc(C(=O)O)c2)cn1 | 7.52 | > 64 | – | 5.64 | 7.92 | 43 (≈ 101 µM) | 7.14 | > 64 | 11 (≈ 25.9 µM) | 43 (≈ 101 µM) | 0.66 (≈ 1.55 µM) | 0.12 | – | – | – | –
CCNC(=O)Nc1ccccc1 | < 3.00 | – | – | – | – | – | – | – | – | – | – | – | – | – | – | –
CCNC(=O)Nc1ccc(Oc2cccc(C(=O)O)c2)cn1 | 5.00 | > 64 | – | < 3.70 | 5.36 | > 64 | 4.80 | > 64 | > 64 | > 64 | > 64 | – | – | – | – | –
CCNC(=O)Nc1cc(Cl)c(-c2cncc(C(=O)O)c2)cn1 | 6.89 | > 64 | – | 5.37 | 7.24 | > 64 | 7.66 | > 64 | > 64 | > 64 | 4 (≈ 12.5 µM) | -1.1 | – | – | – | –
CCNC(=O)Nc1cc(Br)c(-c2cncc(C(=O)O)c2)cn1 | 6.52 | > 9 | – | 5.32 | 7.17 | > 9 | 7.28 | > 9 | > 9 | – | 4.6 (≈ 12.6 µM) | -1 | – | – | – | –
CCCNC(=O)Nc1ccccn1 | < 3.00 | – | – | – | – | – | – | – | – | – | – | – | – | – | – | –
CCNC(=O)Nc1ccc(-c2cncc(C(=O)O)c2)cn1 | – | > 64 | – | 4.62 | 5.85 | > 64 | 6.40 | > 64 | > 64 | > 64 | > 64 | – | – | – | – | –
CCNC(=O)Nc1cc(-c2nc(C(F)(F)F)cs2)c(-c2cncc(-c3nc(C)no3)c2)cn1 | 7.28 | > 64 | 0.19 (≈ 0.4 µM) | 5.85 | > 8.00 | > 64 | 7.60 | 0.37 (≈ 0.778 µM) | 0.74 (≈ 1.56 µM) | 0.74 (≈ 1.56 µM) | < 0.095 | 3.4 | 0.063 | 100 | 11 | < 1
O=C(Nc1ccccn1)NC1CC1 | 3.00 | – | – | – | – | – | – | – | – | – | – | – | – | – | – | –
CNC(=O)Nc1ccccn1 | 4.00 | – | – | – | – | – | – | – | – | – | – | – | – | – | – | –
CCNC(=O)Nc1cc(-c2ccncc2)c(-c2cncc(C(=O)O)c2)cn1 | 6.49 | > 9 | – | 4.96 | 6.62 | > 9 | 6.51 | > 9 | > 9 | > 9 | > 9 | -0.82 | – | – | – | –
CCNC(=O)Nc1cc(-c2nc(C(F)(F)F)cs2)c(-c2cncc(-c3nnc(C)o3)c2)cn1 | > 8.00 | > 64 | 0.26 (≈ 0.547 µM) | 6.29 | > 8.00 | 33 (≈ 69.4 µM) | 7.82 | 0.19 (≈ 0.4 µM) | 0.26 (≈ 0.547 µM) | 0.37 (≈ 0.778 µM) | 0.05 (≈ 0.105 µM) | 2.4 | 0.11 | 123 | 3.3 | 1 (≈ 0.475 µg/mL)
